How the values were obtained:
[1] = molecular target: Carbonic anhydrase 1 (Homo sapiens, UniProt P00915); assay: Binding affinity to human CA1 assessed as inhibition constant using p-nitrophenylacetate as substrate by spectrophotometry
[2] = molecular target: T1, Acetylcholinesterase (Homo sapiens, UniProt P22303); assay: Binding affinity to AChE (unknown origin) assessed as inhibition constant using acetylthiocholine iodide as substrate preincubated for 10 mins followed by substrate addition by Ellman's method
T1 sequence (P22303 whole entry): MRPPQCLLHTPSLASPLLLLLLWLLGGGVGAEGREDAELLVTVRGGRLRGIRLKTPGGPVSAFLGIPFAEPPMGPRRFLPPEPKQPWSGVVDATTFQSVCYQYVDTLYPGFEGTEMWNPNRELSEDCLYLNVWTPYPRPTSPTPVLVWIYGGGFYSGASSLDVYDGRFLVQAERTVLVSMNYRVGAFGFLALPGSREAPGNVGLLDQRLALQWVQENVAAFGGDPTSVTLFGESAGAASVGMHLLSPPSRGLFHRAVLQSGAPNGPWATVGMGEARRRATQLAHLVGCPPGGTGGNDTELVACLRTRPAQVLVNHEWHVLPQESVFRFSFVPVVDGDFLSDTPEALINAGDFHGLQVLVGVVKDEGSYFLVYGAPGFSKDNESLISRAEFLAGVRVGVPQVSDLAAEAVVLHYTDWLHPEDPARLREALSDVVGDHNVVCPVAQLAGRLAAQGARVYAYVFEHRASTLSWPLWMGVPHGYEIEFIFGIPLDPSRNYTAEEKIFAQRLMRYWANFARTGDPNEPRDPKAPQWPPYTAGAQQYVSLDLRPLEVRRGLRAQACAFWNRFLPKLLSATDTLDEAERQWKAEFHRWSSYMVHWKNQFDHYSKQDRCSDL

[3] = molecular target: Carbonic anhydrase 2 (Homo sapiens, UniProt P00918); assay: Binding affinity to human CA2 assessed as inhibition constant using p-nitrophenylacetate as substrate by spectrophotometry
[4] = molecular target: T2, Acetylcholinesterase (Rattus norvegicus, UniProt P37136); assay: Inhibition of rat cortex AChE using acetylthiocholine iodide as substrate incubated for 15 mins by Ellman's method
T2 sequence (P37136 whole entry): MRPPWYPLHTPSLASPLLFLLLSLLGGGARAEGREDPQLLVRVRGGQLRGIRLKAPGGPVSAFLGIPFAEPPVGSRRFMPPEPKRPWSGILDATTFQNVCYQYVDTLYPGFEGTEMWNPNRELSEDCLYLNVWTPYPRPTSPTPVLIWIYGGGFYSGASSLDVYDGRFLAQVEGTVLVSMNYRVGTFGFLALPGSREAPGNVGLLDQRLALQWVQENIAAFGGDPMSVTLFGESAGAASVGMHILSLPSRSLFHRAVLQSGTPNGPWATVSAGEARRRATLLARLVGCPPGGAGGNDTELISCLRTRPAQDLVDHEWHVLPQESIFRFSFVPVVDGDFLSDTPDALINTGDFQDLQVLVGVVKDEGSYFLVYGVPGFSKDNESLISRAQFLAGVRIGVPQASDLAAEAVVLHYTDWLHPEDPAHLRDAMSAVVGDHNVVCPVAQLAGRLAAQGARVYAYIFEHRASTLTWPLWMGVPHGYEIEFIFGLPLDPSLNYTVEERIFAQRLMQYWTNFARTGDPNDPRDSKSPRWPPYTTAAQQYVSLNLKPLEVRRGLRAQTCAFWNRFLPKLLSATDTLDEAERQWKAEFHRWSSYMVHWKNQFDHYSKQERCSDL

[5] = molecular target: Acetylcholinesterase and butyrylcholinesterase (AChE and BChE) (Rattus norvegicus) (UniProt P37136+Q9JKC1); assay: Selectivity index, ratio of IC50 for rat serum BChE to IC50 for rat cortex AChE
[6] = molecular target: Butyrylcholinesterase (Rattus norvegicus, UniProt Q9JKC1); assay: Inhibition of rat serum BChE using butyrylthiocholine iodide as substrate incubated for 15 mins by Ellman's method
Sequence of Butyrylcholinesterase (Q9JKC1 whole entry): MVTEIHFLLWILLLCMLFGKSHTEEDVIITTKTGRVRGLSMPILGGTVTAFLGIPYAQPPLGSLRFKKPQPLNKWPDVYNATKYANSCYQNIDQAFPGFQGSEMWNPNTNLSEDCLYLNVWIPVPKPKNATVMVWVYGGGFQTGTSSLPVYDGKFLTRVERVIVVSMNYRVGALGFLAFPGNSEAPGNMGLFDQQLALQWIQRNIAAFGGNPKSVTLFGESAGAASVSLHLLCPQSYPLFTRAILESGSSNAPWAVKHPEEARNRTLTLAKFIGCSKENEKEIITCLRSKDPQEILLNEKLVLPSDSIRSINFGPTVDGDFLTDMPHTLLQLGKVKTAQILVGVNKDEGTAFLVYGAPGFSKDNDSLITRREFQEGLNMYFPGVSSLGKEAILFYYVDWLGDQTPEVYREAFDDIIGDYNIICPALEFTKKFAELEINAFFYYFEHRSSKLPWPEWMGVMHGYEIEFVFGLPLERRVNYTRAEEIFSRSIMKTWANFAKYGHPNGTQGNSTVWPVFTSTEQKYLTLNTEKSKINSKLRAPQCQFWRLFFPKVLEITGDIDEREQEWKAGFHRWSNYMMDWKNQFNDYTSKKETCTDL

[7] = molecular target: T3, Amine oxidase [flavin-containing] B (Homo sapiens, UniProt P27338); assay: Inhibition of MAO-B (unknown origin)
T3 sequence (P27338 whole entry): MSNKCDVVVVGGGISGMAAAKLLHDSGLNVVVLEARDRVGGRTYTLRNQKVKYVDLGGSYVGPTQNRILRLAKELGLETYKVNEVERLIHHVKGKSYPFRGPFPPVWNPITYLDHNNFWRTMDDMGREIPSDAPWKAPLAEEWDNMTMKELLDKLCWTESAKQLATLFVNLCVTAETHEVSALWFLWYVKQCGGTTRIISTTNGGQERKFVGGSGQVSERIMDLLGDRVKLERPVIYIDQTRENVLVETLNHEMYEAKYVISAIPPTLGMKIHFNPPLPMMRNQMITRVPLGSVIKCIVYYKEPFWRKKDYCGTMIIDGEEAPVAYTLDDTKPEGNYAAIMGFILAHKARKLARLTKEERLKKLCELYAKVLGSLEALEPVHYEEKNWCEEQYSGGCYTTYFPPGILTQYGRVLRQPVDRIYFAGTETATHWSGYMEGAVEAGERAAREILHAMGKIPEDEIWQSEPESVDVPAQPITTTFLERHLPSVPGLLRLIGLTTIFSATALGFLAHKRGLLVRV

[8] = molecular target: T2, Acetylcholinesterase; assay: Inhibition of rat AChE by Ellman's method
[9] = molecular target: T4, Amine oxidase [flavin-containing] A (Homo sapiens, UniProt P21397); assay: Inhibition of MAO-A (unknown origin)
T4 sequence (P21397 whole entry): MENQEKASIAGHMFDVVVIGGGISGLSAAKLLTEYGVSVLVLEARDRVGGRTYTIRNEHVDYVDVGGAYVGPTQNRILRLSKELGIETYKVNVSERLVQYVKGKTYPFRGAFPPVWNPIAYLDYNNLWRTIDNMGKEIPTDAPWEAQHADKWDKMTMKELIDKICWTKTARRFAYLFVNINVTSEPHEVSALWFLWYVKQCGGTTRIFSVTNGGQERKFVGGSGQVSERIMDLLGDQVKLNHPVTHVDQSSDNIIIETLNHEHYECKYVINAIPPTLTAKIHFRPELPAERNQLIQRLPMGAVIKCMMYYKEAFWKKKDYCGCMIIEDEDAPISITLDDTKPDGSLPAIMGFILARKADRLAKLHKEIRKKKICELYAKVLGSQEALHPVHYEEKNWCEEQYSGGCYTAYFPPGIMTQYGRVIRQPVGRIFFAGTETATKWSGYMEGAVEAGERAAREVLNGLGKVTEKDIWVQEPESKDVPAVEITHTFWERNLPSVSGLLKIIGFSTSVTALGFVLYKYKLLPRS

[10] = molecular target: High affinity cGMP-specific 3',5'-cyclic phosphodiesterase 9A (Homo sapiens, UniProt O76083); assay: Inhibition of PDE9A (unknown origin)
[11] = molecular target: Cholinesterase (Equus caballus, UniProt P81908); assay: Inhibition of equine BChE
Sequence of Cholinesterase (Equus caballus, UniProt P81908) (P81908 whole entry): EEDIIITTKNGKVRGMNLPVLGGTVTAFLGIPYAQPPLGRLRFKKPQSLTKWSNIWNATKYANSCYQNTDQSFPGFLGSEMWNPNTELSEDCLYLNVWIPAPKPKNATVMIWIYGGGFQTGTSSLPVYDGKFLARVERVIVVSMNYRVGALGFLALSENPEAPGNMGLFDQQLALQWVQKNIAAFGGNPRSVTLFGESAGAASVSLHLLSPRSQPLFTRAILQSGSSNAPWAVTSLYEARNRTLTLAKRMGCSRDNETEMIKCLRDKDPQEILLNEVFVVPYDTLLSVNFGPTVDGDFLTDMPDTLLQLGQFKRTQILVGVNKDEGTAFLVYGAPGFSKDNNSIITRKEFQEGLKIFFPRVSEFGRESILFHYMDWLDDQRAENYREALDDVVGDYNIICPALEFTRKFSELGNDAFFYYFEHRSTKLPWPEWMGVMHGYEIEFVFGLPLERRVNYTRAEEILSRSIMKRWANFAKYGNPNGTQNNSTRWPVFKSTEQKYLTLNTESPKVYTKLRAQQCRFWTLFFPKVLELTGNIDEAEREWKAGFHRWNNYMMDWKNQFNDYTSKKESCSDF

[12] = Selectivity index, ratio of IC50 for human plasma BChE to IC50 for electric eel AChE
[13] = molecular target: T4, Amine oxidase [flavin-containing] A; assay: Inhibition of recombinant human MAO-A expressed in BTI-TN-5B1-4 insect cells using p-tyramine as substrate at 100 uM preincubated for 15 mins followed by substrate addition measured after 20 mins by Amplex Red assay relative to control; conditions: BTI-TN-5B1-4, human, time 35 min
[14] = molecular target: T1, Acetylcholinesterase; assay: Inhibition of recombinant human AChE using acetylthiocholine as substrate at 100 uM preincubated for 5 mins followed by substrate addition measured for 1 min by Ellman's method relative to control; conditions: time 6.0 min
[15] = molecular target: Beta-secretase 1 (Homo sapiens, UniProt P56817); assay: Inhibition of BACE1 (unknown origin) using A-beta-PP as substrate by fluorescence based assay
Sequence of Beta-secretase 1 (P56817 whole entry): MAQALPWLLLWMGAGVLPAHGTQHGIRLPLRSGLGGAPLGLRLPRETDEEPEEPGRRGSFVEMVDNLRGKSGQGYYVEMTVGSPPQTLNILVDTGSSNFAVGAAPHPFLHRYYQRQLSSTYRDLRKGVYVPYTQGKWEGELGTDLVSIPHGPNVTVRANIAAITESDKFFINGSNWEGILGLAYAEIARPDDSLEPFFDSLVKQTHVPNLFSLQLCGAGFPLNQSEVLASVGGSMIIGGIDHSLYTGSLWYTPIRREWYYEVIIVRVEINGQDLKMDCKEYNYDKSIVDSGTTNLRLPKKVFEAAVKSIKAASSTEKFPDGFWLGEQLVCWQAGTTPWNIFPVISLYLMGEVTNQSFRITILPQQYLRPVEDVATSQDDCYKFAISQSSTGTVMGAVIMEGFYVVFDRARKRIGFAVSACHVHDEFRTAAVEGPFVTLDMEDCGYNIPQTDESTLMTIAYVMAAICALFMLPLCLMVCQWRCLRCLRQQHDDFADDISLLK

[16] = molecular target: T1, Acetylcholinesterase; assay: Binding affinity to AChE (unknown origin) assessed as inhibition constant preincubated for 60 mins followed by substrate addition measured after 60 mins by colorimetric method
[17] = molecular target: T5, Cholinesterases; ACHE & BCHE (Homo sapiens) (UniProt P06276+P22303); assay: Selectivity index, ratio of IC50 for recombinant human serum BChE to IC50 for recombinant human serum AChE; assay type: protein assay
T5 sequence (P06276 whole entry, looked up): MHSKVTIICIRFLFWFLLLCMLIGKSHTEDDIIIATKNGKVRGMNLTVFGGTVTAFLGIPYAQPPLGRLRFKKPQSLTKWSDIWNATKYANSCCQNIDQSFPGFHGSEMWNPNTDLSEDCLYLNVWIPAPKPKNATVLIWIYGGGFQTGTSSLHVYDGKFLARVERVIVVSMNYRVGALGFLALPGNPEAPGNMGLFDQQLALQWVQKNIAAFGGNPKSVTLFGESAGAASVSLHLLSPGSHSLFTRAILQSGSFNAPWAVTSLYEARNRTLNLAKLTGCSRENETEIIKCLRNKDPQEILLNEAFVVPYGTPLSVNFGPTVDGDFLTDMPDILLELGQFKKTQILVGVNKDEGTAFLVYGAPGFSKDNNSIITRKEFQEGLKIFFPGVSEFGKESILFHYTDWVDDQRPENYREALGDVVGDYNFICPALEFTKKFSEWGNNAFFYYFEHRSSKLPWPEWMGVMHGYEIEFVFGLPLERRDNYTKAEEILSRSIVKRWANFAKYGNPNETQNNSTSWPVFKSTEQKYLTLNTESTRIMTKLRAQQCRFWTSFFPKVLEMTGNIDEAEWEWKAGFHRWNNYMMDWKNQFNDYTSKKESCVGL
T5 sequence (P22303 whole entry, looked up): as the sequence (P22303 whole entry) above

[18] = molecular target: Cholinesterase (Homo sapiens, UniProt P06276); assay: Inhibition of recombinant human serum BChE using acetylthiocholine iodide as substrate preincubated for 20 mins followed by substrate addition by Ellman's method
[19] = molecular target: T1, Acetylcholinesterase; assay: Inhibition of recombinant human serum AChE using acetylthiocholine iodide as substrate preincubated for 20 mins followed by substrate addition by Ellman's method
[20] = molecular target: Acetylcholinesterase (Electrophorus electricus, UniProt O42275); assay: Inhibition of electric eel AChE using acetylthiocholine iodide as substrate incubated for 5 mins followed by substrate addition by Ellman's method
Sequence of Acetylcholinesterase (Electrophorus electricus, UniProt O42275) (O42275 whole entry): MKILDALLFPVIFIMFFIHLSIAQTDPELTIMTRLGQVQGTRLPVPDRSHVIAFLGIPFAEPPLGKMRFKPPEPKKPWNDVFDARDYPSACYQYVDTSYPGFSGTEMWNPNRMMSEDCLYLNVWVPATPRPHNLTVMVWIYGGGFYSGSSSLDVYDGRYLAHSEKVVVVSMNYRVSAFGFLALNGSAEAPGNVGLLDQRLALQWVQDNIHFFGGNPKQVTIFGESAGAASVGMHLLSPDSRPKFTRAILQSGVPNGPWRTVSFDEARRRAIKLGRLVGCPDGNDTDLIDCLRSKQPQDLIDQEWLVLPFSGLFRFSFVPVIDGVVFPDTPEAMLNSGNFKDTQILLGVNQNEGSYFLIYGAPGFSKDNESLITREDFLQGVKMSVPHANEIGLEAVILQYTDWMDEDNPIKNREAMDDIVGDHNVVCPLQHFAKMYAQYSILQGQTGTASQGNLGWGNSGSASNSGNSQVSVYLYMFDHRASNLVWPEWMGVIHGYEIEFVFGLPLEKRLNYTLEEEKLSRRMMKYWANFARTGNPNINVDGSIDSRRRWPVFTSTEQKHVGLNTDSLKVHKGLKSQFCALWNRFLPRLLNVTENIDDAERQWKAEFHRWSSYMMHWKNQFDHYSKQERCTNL

[21] = molecular target: T1, Acetylcholinesterase; assay: Inhibition of human AChE using acetylthiocholine iodide as substrate preincubated for 10 mins followed by substrate addition by spectrophotometry
[22] = molecular target: T5, Cholinesterases; ACHE & BCHE (Homo sapiens); assay: Selectivity index, ratio of IC50 for recombinant human serum AChE to IC50 for recombinant human serum BChE; assay type: protein assay
[23] = molecular target: Fatty-acid amide hydrolase 1 (Rattus norvegicus, UniProt P97612); assay: Displacement of [14C]-ethanolamine from FAAH derived from rat brain membrane fraction preincubated for 20 mins followed by susbstrate addition by scintillation counting method; assay type: cell membranes
Sequence of Fatty-acid amide hydrolase 1 (P97612 whole entry): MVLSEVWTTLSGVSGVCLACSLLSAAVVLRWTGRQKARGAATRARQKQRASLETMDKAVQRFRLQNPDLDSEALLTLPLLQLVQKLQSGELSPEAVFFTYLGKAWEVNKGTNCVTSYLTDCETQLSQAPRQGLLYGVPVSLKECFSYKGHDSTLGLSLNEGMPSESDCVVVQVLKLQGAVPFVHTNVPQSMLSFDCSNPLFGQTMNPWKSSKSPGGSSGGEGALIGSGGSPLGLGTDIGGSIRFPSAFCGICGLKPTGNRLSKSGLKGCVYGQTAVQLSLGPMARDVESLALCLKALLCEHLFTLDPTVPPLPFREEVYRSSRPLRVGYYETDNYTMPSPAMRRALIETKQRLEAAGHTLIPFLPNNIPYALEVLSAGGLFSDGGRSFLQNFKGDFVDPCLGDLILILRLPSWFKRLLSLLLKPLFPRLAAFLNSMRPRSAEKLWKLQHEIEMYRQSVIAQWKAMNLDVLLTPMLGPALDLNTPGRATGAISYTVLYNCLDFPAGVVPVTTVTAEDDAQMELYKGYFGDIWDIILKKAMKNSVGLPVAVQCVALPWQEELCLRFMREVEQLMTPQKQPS

[24] = molecular target: Acetylcholinesterase (Bos taurus, UniProt P23795)
Sequence of Acetylcholinesterase (Bos taurus, UniProt P23795) (P23795 whole entry): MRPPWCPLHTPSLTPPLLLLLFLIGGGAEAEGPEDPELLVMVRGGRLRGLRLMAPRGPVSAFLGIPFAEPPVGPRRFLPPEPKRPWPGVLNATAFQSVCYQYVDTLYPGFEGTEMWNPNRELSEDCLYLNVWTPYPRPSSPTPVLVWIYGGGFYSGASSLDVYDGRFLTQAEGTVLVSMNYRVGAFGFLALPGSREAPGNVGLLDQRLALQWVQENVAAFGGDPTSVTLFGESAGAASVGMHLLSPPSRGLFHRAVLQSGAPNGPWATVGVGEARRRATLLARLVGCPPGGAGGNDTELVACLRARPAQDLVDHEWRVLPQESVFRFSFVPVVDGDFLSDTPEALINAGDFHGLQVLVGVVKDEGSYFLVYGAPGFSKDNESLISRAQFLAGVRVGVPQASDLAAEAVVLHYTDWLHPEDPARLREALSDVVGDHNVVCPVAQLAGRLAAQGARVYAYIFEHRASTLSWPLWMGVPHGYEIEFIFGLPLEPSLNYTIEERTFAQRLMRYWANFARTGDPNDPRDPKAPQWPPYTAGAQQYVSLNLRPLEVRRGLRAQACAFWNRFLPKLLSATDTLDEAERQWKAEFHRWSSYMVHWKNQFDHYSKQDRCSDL
Description: Inhibition of bovine AChE

[25] = molecular target: T1, Acetylcholinesterase; assay: Binding affinity to human AChE assessed as inhibition constant using acetylthiocholine iodide as substrate preincubated for 10 mins followed by substrate addition by Ellman's method

Sequence of Carbonic anhydrase 1 (P00915 whole entry): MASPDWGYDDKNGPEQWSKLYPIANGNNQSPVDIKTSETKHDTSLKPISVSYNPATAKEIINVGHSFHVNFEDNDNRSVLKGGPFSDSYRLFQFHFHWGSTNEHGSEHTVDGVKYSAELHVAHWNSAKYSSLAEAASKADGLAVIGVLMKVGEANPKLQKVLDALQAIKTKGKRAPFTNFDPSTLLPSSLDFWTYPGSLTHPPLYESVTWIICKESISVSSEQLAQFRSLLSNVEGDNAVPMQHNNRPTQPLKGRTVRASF

SMILES: COc1cccc2c1CCCC2NS(=O)(=O)NC(=O)OCc1ccccc1 (configuration not stated)
- IC50 [1]: 0.00449 µM
- IC50 [2]: 0.000209 µM
- IC50 [3]: 0.00494 µM

SMILES: CCNC(=O)Oc1ccc(-c2cc(=O)c3c(O)c(O)c(O)cc3o2)cc1
- IC50 [4]: 1.2 µM
- Ratio IC50 [5]: 18.4
- IC50 [6]: 22.1 µM

SMILES: CC/N=C1\CCc2c1n(C)c1ccc(OC(=O)NC)c(Cl)c21
- IC50 [7]: > 1000 µM
- IC50 [8]: 0.16 µM
- IC50 [9]: 0.1 µM

SMILES: COc1cc(CNc2nc3c(cnn3C3CCCC3)c(=O)[nH]2)ccc1OC(=O)N(C)C
- IC50 [10]: 0.017 µM
- IC50 [11]: 0.97 µM

SMILES: O=C(CCCCC1CCSS1)O[C@@H]1CO[C@H]2[C@@H]1OC[C@@H]2OC(=O)NCc1ccccc1 (some centres not stated)
- Ratio IC50 [12]: 667

SMILES: C#CCN1CCC(CCc2cccc(OC(=O)Nc3ccccc3)c2)CC1
- inhibition at 100 µM [13]: 54%
- inhibition [14]: 51.9%

SMILES: C#CCN1CCC(CCc2cccc(OC(=O)N(C)CC)c2)CC1
- inhibition at 100 µM [13]: 69.4%
- inhibition [14]: 50.2%

SMILES: CC(C)(C)OC(=O)Nc1ccc(O)c(C(=O)NCCCN2CCCCC2)c1
- IC50 [15]: 0.0151 µM
- Ki [16]: 0.12 µM

SMILES: CNC(=O)Oc1cccc(CN(C)CCCCCCCOc2ccc(-c3cc(=O)c4ccccc4o3)cc2)c1
- Ratio IC50 [17]: 96
- IC50 [18]: 0.0702 µM
- IC50 [19]: 0.00073 µM

SMILES: COc1cc2c(cc1OC)C(=O)C(Cc1ccc(OC(=O)Nc3ccc(Cl)cc3)cc1)C2 (configuration not stated)
- IC50 [20]: 4.64 µM

SMILES: CC1CCCCN1CCCNC(=O)c1cc(NC(=O)OC(C)(C)C)ccc1O (configuration not stated)
- IC50 [15]: 0.0154 µM
- Ki [16]: 0.17 µM

SMILES: CCOC(=O)C1=CN(C)c2cccc(OC(=O)N(C)C)c2C1
- IC50 [21]: > 1000 µM

SMILES: CN(CCCOc1ccc2ccc(=O)oc2c1)Cc1cccc(OC(=O)NC2CCCCC2)c1
- Ratio IC50 [22]: 2.98
- IC50 [23]: 0.00133 µM

SMILES: CCN(C)C(=O)Oc1cccc2c1NCC2CCC(=O)OC (configuration not stated)
- IC50 [11]: 61.6 µM
- IC50 [24]: 0.008 µM

SMILES: COc1cc2c(c(OC)c1)CC(NC(=O)OCc1ccccc1)C2 (configuration not stated)
- Ki [25]: 0.000261 µM
- Ki [1]: 0.00561 µM
- Ki [3]: 0.00739 µM

Source: ChEMBL document CHEMBL5214927, “Recent advance on carbamate-based cholinesterase inhibitors as potential multifunctional agents against Alzheimer's disease” (Eur J Med Chem, 2022)
